In experiment [1] the test system is chromatin accessibility in Th9 cells. The experiment in a line: Bulk ATAC-seq of Th9 cells (Figure 3C, S3E). It counts as cell-based, mouse. As to conditions: result in words. The text has this:
Raw FASTQ reads were subjected to quality control using Trim Galore to remove adapter sequences and low-quality bases. Cleaned reads were aligned to the GRCm38 mouse reference genome using Bowtie2. Low-quality alignments were filtered out using SAMtools, and PCR duplicates were removed using Sambamba to reduce technical artifacts. ENCODE blacklist regions were excluded using BEDtools. Read positions were adjusted using alignmentSieve, followed by sorting and indexing with SAMtools to generate BAM files. Peak calling was conducted using MACS3 to identify regions of open chromatin indicative of accessible regulatory elements.

The next experiment relates to B16-OVA melanoma. In words: Adoptive transfer of OT-II Th9 cells with anti-PD-1, B16-OVA tumor growth (Figure 2I). As to conditions: EpA-Th9 cells with anti-PD-1; result in words. The experiment is classed as in vivo, C57BL/6 mice. The text has this:
(A) Schematic of the therapeutic model. C57BL/6 mice were subcutaneously inoculated with B16-OVA melanoma cells (5 × 10^5) and preconditioned with cyclophosphamide (CTX) on day 4. […] (B–G) Flow-cytometric analysis of transferred CD45.1^+ OT-II Th9 cells (B and C) and endogenous CD4^+ (D and E) and CD8^+ T cells (F and G) in spleens and tumors, showing frequencies and absolute numbers (n = 4 mice per group). (H) Tumor growth curves in B16-OVA–bearing C57BL/6 or β2-microglobulin–deficient (β2m-KO) mice following transfer of control or EpA-treated OT-II Th9 cells (n = 4 mice per group). (I) C57BL/6 mice bearing B16-OVA tumors were treated with control or EpA-induced OT-II Th9 cells (2 × 10^6, i.v., day 5), followed by anti–PD-1 antibody (200 μg, i.p.) on day 7, and (100 μg, i.p.) on day 10 and 12. Tumor growth is shown with individual trajectories (n = 6 mice per group). Statistical analysis was performed using 2-tailed unpaired Student’s t test ([…], B–G) or 1-way ANOVA with Tukey’s post hoc test (H and I). All data are presented as the mean ± SEM. *P < 0.05, **P < 0.01, ***P < 0.001. Schematic in A created using BioRender (https://Biorender.com).
Finally, we examined whether the CD8^+ T cell–supporting capacity of EpA-Th9 cells could synergize with immune checkpoint blockade (ICB) therapy. […]

Take anteiso-C15 Leu7 surfactin [EpA]: in experiment [1], the “Ifng accessibility and expression” value is on record as “further reduced”; the “Il9 locus accessibility and transcription” value is “increased accessibility and transcription”; the global chromatin accessibility entry is on record as “only modestly affected”. Besides, the “response to PD-1 blockade” value in the experiment on B16-OVA melanoma is “significantly enhanced the therapeutic response to PD-1 blockade”.

The record behind these values is article PMC12867150, “A fungi-derived cyclic peptide enhances Th9-mediated antitumor immunity by targeting ZAP70 and SREBP1” (The Journal of Clinical Investigation, 2025).
